We go through one compound from US20220296534A1 (SOCIETE DES PRODUITS NESTLE S.A., priority 2019, published 2022).

The subject of one data set is INS-1 cells. As to the kind of experiment: Glucose stimulated insulin secretion (GSIS) in INS-1 cells, insulin by ELISA. In kind it is cell-based, rat. The following applies: FIG. 2. The procedure:
INS-1 cellular model: The β pancreatic INS-1 cells were selected for their insulin secretion profile in response to glucose and to other physiological or pharmacological insulin secretagogues such as sulfonylureas and GLP-1. The cells were cultured in complete medium, RPMI 1640 11 mM glucose supplemented with 1 mM sodium pyruvate, 50 μM 2-mercaptoethanol, 2 mM glutamine, 10 mM HEPES, 100 IU/mL penicillin, 100 μg/mL streptomycin and 10% heat-inactivated foetal calf serum (FCS), as described by Asfari et al. (Endocrinology 130: 167-178, 1992). For the insulin secretion assay, INS-1 cells were plated and cultured in 96-well poly ornithine coated plates. The day before insulin secretion test, the medium were removed and replaced by RPMI 5 mM glucose supplemented with FCS 1%. The day of the insulin secretion test, the cells were washed with Krebs-Ringer Bicarbonate HEPES buffer (KRBH; pH 7.4) 0.1% BSA and pre-incubated for 30 min at 37° C. in KRBH 0.1% BSA containing 2.8 mM glucose. The cells were then washed again with KRBH and incubated with the tested ingredients for 60 min in KRBH 0.1% BSA containing glucose (5 or 16 mM). The supernatants were collected and frozen before insulin determination. The insulin concentration in the collected supernatants were measured by an ELISA kit according to the manufacturer recommendations and using a rat insulin antibody (Insulin rat high range ELISA Alpco Cat no 80-INSRTH-E10). Very briefly, rat monoclonal antibodies specific for insulin were immobilized to 96-well plates. Standards, samples and controls were added to the appropriate wells with a horseradish peroxidase enzyme-labeled monoclonal antibody (Conjugate). After incubation, the microplates were washed to remove unbound Conjugate and a TMB substrate solution was added to react with the bound Conjugate. Finally, after addition of a stop solution, the optical density was measured at 450 nm using a reference wavelength of 620 nm. The intensity of the yellow color is directly proportional to the amount of insulin within the samples. […]
(ELISA stands for enzyme-linked immunosorbent assay.)

Another data set deals with human primary islets. Kind of data set: Glucose stimulated insulin secretion in human primary islets, insulin by ELISA. In kind it is cell-based. The following applies: 1 μM, FIG. 3. The method, then: The insulin concentration in the collected supernatants were measured by an ELISA kit according to the manufacturer recommendations and using a rat insulin antibody (Insulin rat high range ELISA Alpco Cat no 80-INSRTH-E10). Very briefly, rat monoclonal antibodies specific for insulin were immobilized to 96-well plates. Standards, samples and controls were added to the appropriate wells with a horseradish peroxidase enzyme-labeled monoclonal antibody (Conjugate). After incubation, the microplates were washed to remove unbound Conjugate and a TMB substrate solution was added to react with the bound Conjugate. Finally, after addition of a stop solution, the optical density was measured at 450 nm using a reference wavelength of 620 nm. The intensity of the yellow color is directly proportional to the amount of insulin within the samples. Human primary islets: Human islets from non-diabetic deceased male donors were purchased from Tebu-bio (Le-Perray-en-Yvelines, France). […] Insulin in supernatants was determined with specific ELISA kits, according to the manufacturer's instructions (Ultrasensitive Insulin ELISA, ALPCO Diagnostics, Salem, USA). […] Insulin was measured in the cell lysates using specific ELISA kits (Ultrasensitive Insulin ELISA, ALPCO Diagnostics) and normalised to DNA content.

The conditions of data set [1]: humans; cited from earlier work.

As for `O[C@H]1[C@H](O)[C@@H](O)[C@H](O)[C@@H](O)[C@@H]1O` [scyllo-inositol, (1r,2r,3r,4r,5r,6r)-Cyclohexane-1,2,3,4,5,6-hexol], the “glucose stimulated insulin secretion (GSIS), expressed as a percentage versus glucose” value in the data set with INS-1 cells (20 μM scyllo-inositol) amounted to 120%; in the data set with INS-1 cells (2000 μM scyllo-inositol) it was 142%. Further, the “concentration at which GSIS reaches a plateau” value in the data set with INS-1 cells (doses from 20 to 2000 μM) lay in the range of 1000 to 2000 µM. The “effect on insulin secretion over the control condition (5 mM glucose)” value in the data set with human primary islets is “synergistic effect”. In data set [1], the “mean time to reach the maximum level after ingestion” value is “about 3.8 h”.
